Active and inactive are the calls of the source. The rule behind the calls is not given here.
How the values were obtained:
Type in all cases: functional, cell-based
[1] = tested on: PC-12; assay: Enhancement of neurite outgrowth in rat PC12D cells up to 30 uM in absence of nerve growth factor
[2] = tested on: PC-12; assay: Enhancement of nerve growth factor-stimulated neurite outgrowth in rat PC12D cells at 3 to 10 uM
[3] = tested on: PC-12; assay: Enhancement of nerve growth factor-stimulated neurite outgrowth in rat PC12D cells at 1 to 3 uM

SMILES	Activity [1]	Activity [2]	Activity [3]
CC1(C)CC[C@]2(C(=O)O)CC[C@]3(C)C(=CC[C@@H]4[C@@]5(C)CC[C@H](O)C(C)(C)[C@@H]5CC[C@]43C)[C@@H]2C1	inactive	Active	
CC[C@H](C[C@@H](O)[C@@H](C)[C@H]1CC[C@H]2[C@@H]3[C@H](O)C=C4[C@@H](O)[C@@H](O)CC[C@]4(C)[C@H]3CC[C@]12C)C(C)C	inactive		
CC[C@H](C[C@@H](O)[C@@H](C)[C@H]1CC[C@H]2[C@@H]3[C@H](O)C=C4C[C@@H](O)CC[C@]4(C)[C@H]3CC[C@]12C)C(C)C	inactive	Active	
C[C@H]1[C@H](C)CC[C@]2(C(=O)O)CC[C@]3(C)C(=CC[C@@H]4[C@@]5(C)CC[C@H](O)C(C)(C)[C@@H]5CC[C@]43C)[C@H]12	inactive		Active

Source: ChEMBL document CHEMBL1146520, “Sterol and triterpenoid constituents of Verbena littoralis with NGF-potentiating activity” (J Nat Prod, 2003)
